According to patent US20090209046A1, “Neutral Pharmaceuticals” (priority 2006, published 2009):
Values after ≈ are worked out from the molar mass of the structure shown. Where two headings read alike, the source gives them in different places. Marks after values point to notes of the source that are not given here.

Tests used:
[1] = Measurement of solubility in water, octanol saturated water and water saturated octanol; conditions: for logSR (Swo/Sow): log solubility ratio; for logSR (Swo/Sow) / Sow / Swo / Sw: 25° C.; for Sow: solubility in octanol saturated water; for Swo: solubility in water saturated octanol; for Sw: solubility in water
Procedure: Solubilities were determined at 25° C. in water (Sw), octanol saturated water (Sow), water saturated octanol (Swo). An excess of the sample was added to 15 ml of each solvent and stirred vigorously at 25° C. for 8 hours. […] The supernatant was collected. The supernatant samples after appropriate dilutions with respective solvent were analyzed by UV spec using a standard plot of solute in the same medium. Solubility of copper acetate in water saturated octanol was determined by extracting 200 ml saturated wo solution into 20 ml ow.

[2] = Measurement of P: partition coefficient in 1-octanol/water system; conditions: 25° C., observed, for aspirin and caffeine the parent drug itself
[3] = Stability of mixed-ligand Cu(II) complexes in solution (ESI-MS, 1H DOSY NMR); type: physicochemical; conditions: 1H DOSY NMR in D2O, 298K
Procedure: NMR tubes with a 5-mm internal diameter were used. […] Diffusion coefficients were measured by incrementing the amplitude of the field gradient pulse over 32 steps (0.5-30 G/cm). The bipolar gradient duration and the diffusion time were optimized to 2.4 ms and 14.9 ms, respectively. The intensities were fitted to an exponential decay using the SimFit program within the Topspin software to provide estimates of the diffusion constant.
The formation of Cu(ASP)2(AL)2(H2O) is also observed by us from the ESI-MS of ASP-7 and ASP-8 in aqueous solution. Indeed, for mononuclear Cu(II) species, the coordination of anionic API and neutral AL to copper in solution has been confirmed by the mass spectra.
Since structures of binuclear Cu(II) complexes are analogous, as a model, ASP-3 was investigated by using NMR diffusion measurement for stability studies. Diffusion-Ordered Spectroscopy […]) methods^11 are based on pulsed-field gradient spin-echo NMR experiments. […] The small peak on the left at 8.160 ppm is assigned to one proton of 3-Br-Py by comparing the ^1H NMR spectra of ASP-3 and ASP-3/3-Br-Py mixture. Peaks in the range of 7-8 ppm are due to the peak overstocking of aspirin and 3-Br-Py aromatic protons. […] The diffusion coefficient for ASP-3 was 3.819×10^−9 m^2/s. […]

[4] = water, cited from earlier work
[5] = physchem

Molecule | logSR (Swo/Sow) [1] | Sow [1] | Swo [1] | Sw [1] | logP of complex [2] | diffusion coefficient [3] | Sw ([4]; from reference Koch et al. J. Pharm. Sci. 1978) | solubility thermodynamic at 8 h ([1]; octanol saturated water, 25 °C, water, thermodynamic from solid) | logP [5] | Sw ([4]; from MSDS)
CC(=O)Oc1ccccc1C(=O)[O-].CC(=O)Oc1ccccc1C(=O)[O-].CC(=O)Oc1ccccc1C(=O)[O-].CC(=O)Oc1ccccc1C(=O)[O-].[Cu+2].[Cu+2] [ASP-1, Cu2(ASP)4] | −0.4847 | 2.981(3) mg/ml | 0.9767(36) mg/ml | 3.414(25) mg/ml | −0.2371(267) | – | – | – | – | –
CC(=O)Oc1ccccc1C(=O)[O-].CC(=O)Oc1ccccc1C(=O)[O-].CC(=O)Oc1ccccc1C(=O)[O-].CC(=O)Oc1ccccc1C(=O)[O-].CN(C)C=O.CN(C)C=O.[Cu+2].[Cu+2] [ASP-2, Cu2(ASP)4(DMF)2] | −0.4873 | 4.493(4) mg/ml | 1.463(26) mg/ml | 3.092(33) mg/ml | −0.3484(166) | – | – | – | – | –
Brc1cccnc1.Brc1cccnc1.CC(=O)Oc1ccccc1C(=O)[O-].CC(=O)Oc1ccccc1C(=O)[O-].CC(=O)Oc1ccccc1C(=O)[O-].CC(=O)Oc1ccccc1C(=O)[O-].[Cu+2].[Cu+2] [ASP-3, Cu2(ASP)4(3-Br-Py)2] | −0.09583 | 1.566(5) mg/ml | 1.256(15) mg/ml | 1.564(3) mg/ml | 0.1066(58) | 3.819×10^−9 m^2/s | – | – | – | –
CC(=O)Oc1ccccc1C(=O)[O-].CC(=O)Oc1ccccc1C(=O)[O-].CC(=O)Oc1ccccc1C(=O)[O-].CC(=O)Oc1ccccc1C(=O)[O-].[Cu+2].[Cu+2].c1ccc2ncccc2c1.c1ccc2ncccc2c1 [ASP-4, Cu2(ASP)4(Quinoline)2] | 0.2133 | 3.342(3) mg/ml | 5.460(23) mg/ml | 2.729(1) mg/ml | 0.4772(140) | – | – | – | – | –
CC(=O)Oc1ccccc1C(=O)[O-].CC(=O)Oc1ccccc1C(=O)[O-].[Cu+2].c1ccncc1.c1ccncc1 [ASP-5, Cu(ASP)2(Pyridine)2] | −0.4770 | 3.629(24) mg/ml | 1.210(47) mg/ml | 3.425(21) mg/ml | – | – | – | – | – | –
CC(=O)Oc1ccccc1C(=O)[O-].CC(=O)Oc1ccccc1C(=O)[O-].NC(=O)c1ccncc1.NC(=O)c1ccncc1.[Cu+2] [ASP-7, Cu(ASP)2(Isonicotinamide)2] | −0.5333 | 5.654(20) mg/ml | 1.673(9) mg/ml | 9.259(5) mg/ml | −0.4723(272) | – | – | – | – | –
CC(=O)Oc1ccccc1C(=O)[O-].CC(=O)Oc1ccccc1C(=O)[O-].NC(=O)c1cccnc1.NC(=O)c1cccnc1.[Cu+2] [ASP-8, Cu(ASP)2(Nicotinamide)2] | −0.6490 | 3.361(29) mg/ml | 0.7541(97) mg/ml | 4.417(50) mg/ml | −0.5257(136) | – | – | – | – | –
CC(=O)Oc1ccccc1C(=O)[O-].CC(=O)Oc1ccccc1C(=O)[O-].[Cu+2].c1ccc(-c2cccnc2)cc1.c1ccc(-c2cccnc2)cc1 [ASP-9, Cu(ASP)2(3-Phenyl-Pyridine)2] | 0.4495 | 0.4085(17) mg/ml | 1.150(20) mg/ml | 0.5415(7) mg/ml | – | – | – | – | – | –
CC(=O)Oc1ccccc1C(=O)O [Aspirin(ASP), acetylsalicylic acid, reference compound] | 1.101 | – | 54.16(94) mg/ml | – | – | – | 4.600^b mg/ml | 4300 µg/mL (≈ 23.8 mM) | 1.32 | –
CC(=O)[O-].CC(=O)[O-].COc1cccc(OC)c1C(=O)[O-].COc1cccc(OC)c1C(=O)[O-].O.O.[Cu+2].[Cu+2] [MC-2, Cu2(CH3COO)2(DMB)2(H2O)2] | −1.428 | 15.64(14) mg/ml | 0.5841(103) mg/ml | 15.82(11) mg/ml | −1.496(15) | – | – | – | – | –
COc1cccc(OC)c1C(=O)[O-].COc1cccc(OC)c1C(=O)[O-].COc1cccc(OC)c1C(=O)[O-].COc1cccc(OC)c1C(=O)[O-].O.O.[Cu+2].[Cu+2] [MC-3, Cu2(DMB)4(H2O)2] | −0.9168 | 31.97(19) mg/ml | 3.872(125) mg/ml | 33.61(21) mg/ml | −1.442(27) | – | – | – | – | –
O.O.O=C(Oc1ccccc1C(=O)[O-])c1ccccc1O.O=C(Oc1ccccc1C(=O)[O-])c1ccccc1O.O=C(Oc1ccccc1C(=O)[O-])c1ccccc1O.O=C(Oc1ccccc1C(=O)[O-])c1ccccc1O.[Cu+2].[Cu+2] [SAS-1, Cu2(SAS)4(H2O)2] | 1.033 | 0.2962(10) mg/ml | 3.200(5) mg/ml | 0.2791(6) mg/ml | 0.06927(1394) | – | – | – | – | –
Clc1cccnc1.Clc1cccnc1.O=C(Oc1ccccc1C(=O)[O-])c1ccccc1O.O=C(Oc1ccccc1C(=O)[O-])c1ccccc1O.O=C(Oc1ccccc1C(=O)[O-])c1ccccc1O.O=C(Oc1ccccc1C(=O)[O-])c1ccccc1O.[Cu+2].[Cu+2] [SAS-3, Cu2(SAS)4(3-Cl-Pyridine)2] | 0.7472 | 0.1259(4) mg/ml | 0.7034(61) mg/ml | 0.1239(1) mg/ml | – | – | – | – | – | –
O=C(Oc1ccccc1C(=O)[O-])c1ccccc1O.O=C(Oc1ccccc1C(=O)[O-])c1ccccc1O.O=C(Oc1ccccc1C(=O)[O-])c1ccccc1O.O=C(Oc1ccccc1C(=O)[O-])c1ccccc1O.[Cu+2].[Cu+2].c1ccc(Cc2ccncc2)cc1.c1ccc(Cc2ccncc2)cc1 [SAS-4, Cu2(SAS)4(4-Benzyl-Pyridine)2] | 1.336 | 0.0153(3) mg/ml | 0.3314(22) mg/ml | 0.0134(3) mg/ml | – | – | – | – | – | –
C1CCOC1.C1CCOC1.O=C(Oc1ccccc1C(=O)[O-])c1ccccc1O.O=C(Oc1ccccc1C(=O)[O-])c1ccccc1O.O=C(Oc1ccccc1C(=O)[O-])c1ccccc1O.O=C(Oc1ccccc1C(=O)[O-])c1ccccc1O.[Cu+2].[Cu+2].c1ccc(-c2ccncc2)cc1.c1ccc(-c2ccncc2)cc1 [SAS-5, Cu2(SAS)4(4-Phenyl-Pyridine)2(THF)2] | 1.593 | 0.0315(2) mg/ml | 1.236(18) mg/ml | 0.0303(3) mg/ml | 1.231(53) | – | – | – | – | –
O=C(Oc1ccccc1C(=O)[O-])c1ccccc1O.O=C(Oc1ccccc1C(=O)[O-])c1ccccc1O.[Cu+2].c1ccncc1.c1ccncc1.c1ccncc1 [SAS-6, Cu(SAS)2(Pyridine)3] | 0.7655 | 0.3291(8) mg/ml | 1.918(5) mg/ml | 0.4065(8) mg/ml | – | – | – | – | – | –
Cc1ccncc1.Cc1ccncc1.O=C(Oc1ccccc1C(=O)[O-])c1ccccc1O.O=C(Oc1ccccc1C(=O)[O-])c1ccccc1O.[Cu+2] [SAS-8, Cu(SAS)2(4-Me-Pyridine)2] | 0.9488 | 0.2174(10) mg/ml | 1.932(23) mg/ml | 0.2301(18) mg/ml | – | – | – | – | – | –
CCc1ccncc1.CCc1ccncc1.O=C(Oc1ccccc1C(=O)[O-])c1ccccc1O.O=C(Oc1ccccc1C(=O)[O-])c1ccccc1O.[Cu+2] [SAS-9, Cu(SAS)2(4-Et-Pyridine)2] | 1.115 | 0.1104(8) mg/ml | 1.438(9) mg/ml | 0.1143(2) mg/ml | – | – | – | – | – | –
Cu2(CH3COO)4(H2O)2 [MC-1, reference compound] | −2.807 | – | 0.1161(438) mg/ml | – | −2.222(553) | – | – | – | – | 72^a mg/ml
Cu(ASP)2(Isonicotinamide)2(AcCN)2 [ASP-6] | −0.4980 | 5.767(7) mg/ml | 1.832(17) mg/ml | 9.315(10) mg/ml | −0.4647(274) | – | – | – | – | –
Cu(SAS)2(Isonicotinamide)2(AcCN)2/3 [SAS-7] | 0.4241 | 0.2890(10) mg/ml | 0.8344(165) mg/ml | 0.3143(9) mg/ml | 0.03802(967) | – | – | – | – | –
